Measured values as given in patent US11865103B2, “Methods of treating disorders associated with glycosylation defective proteins” (CASE WESTERN RESERVE UNIVERSITY, priority 2016, dated 2024).

Assays:
[1] = tested on: hair cells of hCLRN1^N48K-YFP; clrn1^KO/KO larvae; assay: Extracellular microphonic potentials of lateral line neuromast hair cells; type: in vivo, zebrafish; conditions: 0.4 uM ART 4 hours/day from 3 dpf to 6 dpf; recorded at 6 dpf; untreated 7.286
Method: Zebrafish larvae at 6 dpf were anesthetized using MS-222 (Sigma-Aldrich) dissolved in a standard bath solution containing 120 mM NaCl, 2 mM KCl, 10 mM HEPES, 2 mM CaCl2, and 0.7 mM NaH2PO4 adjusted to pH 7.2. The larvae were then secured in a recording chamber using dental floss tie downs (Ricci and Fettiplace, 1997). Their blood flow and heart rate were visually observed to assess viability using an upright Olympus BX51WI microscope. Recordings were made with a PC-505B amplifier (Warner Instruments) and a PCI-6221 digitizer (National Instruments). Images were taken with a Grasshopper3 CMOS camera (Point Grey) and processed with software provided by the manufacturer. To record the activity of hair cells from the lateral line neuromasts, the cupula of neuromasts were deflected with a fluid jet placed ˜50 μm from the neuromast (Trapani and Nicolson, 2010) and controlled by an HSPC-1 (ALA Scientific Instruments) that delivered sinusoidal stimuli of 50 Hz. Microphonic potentials were recorded at room temperature (22° C.). […] Microphonic potentials were recorded using a jClamp for Windows (SciSoft, license: Joseph Santos-Sacchi, Yale University, New Haven, CT) in current-clamp mode, amplified by 20 (SIM983; Stanford 37 Research), and low-pass filtered at 200 Hz. […]

hCLRN1^N48K-YFP = assay: Hair bundle localization of hCLRN1^N48K-YFP (YFP intensity) in neuromast hair cells of live larvae treated with SERCA inhibitors; type: in vivo, zebrafish; parameters: key: “—” = The YFP intensity in the bundle is similar to untreated control.; “+” = The YFP intensity in the bundle is higher compared to untreated control; conditions: ART 0.25 μM

C[C@@H]1CC[C@H]2[C@@H](C)C(=O)O[C@@H]3O[C@@]4(C)CC[C@@H]1[C@]32OO4 [ART, Artemisinin]
Extracellular microphonic potentials (Mean±SEM) [1]: 9.529 μV | YFP intensity in the bundle compared to untreated control (hCLRN1^N48K-YFP; exposure 2 h): — | YFP intensity in the bundle compared to untreated control (hCLRN1^N48K-YFP; exposure 4 h): — | YFP intensity in the bundle compared to untreated control (hCLRN1^N48K-YFP; exposure 8 h): —
